Measured values: patent US8378117B2 (priority 2005, dated 2013)
Where two headings read alike, the source gives them in different places.

Experiments:
[1] = target: T1, CB1 receptor (Homo sapiens, UniProt P21554); experiment: Binding assay for CB1 agonists or inverse agonists (SK-N-MC membranes, [3H]-CP-55,940); details: for IC50: Cannabinoid CB1 Receptor Binding IC50, calculated by linear regression from percent inhibition at various test concentrations; for inhibition at 0.2 µM: read-out: CB1 receptor binding percent inhibition, test concentration 0.2 μM (footnote 2); for CB1 receptor binding average percent inhibition: value shown is an average percent inhibition (footnote 5), concentration not given
T1 construct: expressed in transfected cells
In short: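 Membranes from SK-N-MC cells stably expressing human CB1 incubated with compound and [3H]-CP-55,940 ([…]) for 90 min at 30° C in Tris-HCl pH 7.5, MgCl2, EDTA, fatty-acid-free BSA. Non-specific binding defined with 10 uM WIN 55,212; filtration, scintillation count; IC50 by linear regression.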

[2] = target: T2, CB2 receptor (Homo sapiens, UniProt P34972); experiment: Binding assay for CB2 agonists or inverse agonists (SK-N-MC membranes, [3H]-CP-55,940); details: for inhibition at 0.2 µM: read-out: CB2 receptor binding percent inhibition, test concentration 0.2 μM (footnote 2); for CB2 receptor binding percent inhibition: test concentration not stated
T2 construct: expressed in transfected cells
In short: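 Membranes from SK-N-MC cells stably expressing human CB2 were incubated with radioligand and test compounds for 90 min at 30 °C in Tris-HCl buffer, pH 7.5, with MgCl2, EDTA and fatty-acid-free BSA. Filter-bound radioactivity was counted; IC50 was derived by linear regression of percent inhibition.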

[3] = target: T1, CB1 receptor; experiment: cell-based; details: SK-N-MC cells
In short: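 SK-N-MC cells stably co-expressing human CB1 and a CRE-β-galactosidase reporter; forskolin-induced β-gal activity measured after compound treatment, as % of vehicle-treated cells (100%). EC50 by linear regression from concentration series; otherwise % change at a single concentration.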

[4] = read-out: CB1 receptor binding percent inhibition, test concentration 1 μM (footnote 1)
[5] = CB1 Receptor Functional Inverse Agonist EC50, forskolin induced β-galactosidase activity
[6] = forskolin induced β-galactosidase activity, read-out: CB1 Receptor Functional Inverse Agonist EC50
[7] = read-out: CB1 receptor binding percent inhibition

T2 sequence (P34972 whole entry): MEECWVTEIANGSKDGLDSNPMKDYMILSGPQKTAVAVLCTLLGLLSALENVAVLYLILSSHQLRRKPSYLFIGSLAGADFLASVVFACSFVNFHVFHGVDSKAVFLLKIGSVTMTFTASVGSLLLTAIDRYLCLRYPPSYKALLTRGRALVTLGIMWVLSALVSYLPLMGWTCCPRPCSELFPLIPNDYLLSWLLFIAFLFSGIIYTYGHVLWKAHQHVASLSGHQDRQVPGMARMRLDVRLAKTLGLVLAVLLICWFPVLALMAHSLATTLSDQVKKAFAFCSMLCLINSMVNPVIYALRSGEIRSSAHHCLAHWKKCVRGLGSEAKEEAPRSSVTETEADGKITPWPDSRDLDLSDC
T1 sequence (P21554 whole entry): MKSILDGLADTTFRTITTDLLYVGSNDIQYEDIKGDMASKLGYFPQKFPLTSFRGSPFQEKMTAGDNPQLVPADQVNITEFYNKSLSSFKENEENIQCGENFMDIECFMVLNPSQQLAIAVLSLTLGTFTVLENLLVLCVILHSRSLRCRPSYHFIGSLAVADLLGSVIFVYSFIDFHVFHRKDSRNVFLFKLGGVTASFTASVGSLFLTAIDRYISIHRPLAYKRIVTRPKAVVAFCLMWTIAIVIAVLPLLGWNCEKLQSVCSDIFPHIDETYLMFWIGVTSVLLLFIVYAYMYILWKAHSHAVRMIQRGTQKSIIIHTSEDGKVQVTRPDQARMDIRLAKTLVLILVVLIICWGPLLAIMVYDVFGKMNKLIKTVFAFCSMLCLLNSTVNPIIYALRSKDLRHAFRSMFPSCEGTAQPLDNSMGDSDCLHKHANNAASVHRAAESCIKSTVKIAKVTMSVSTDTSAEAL

SMILES | IC50 [1] | EC50 [3, 5] | inhibition at 0.2 µM [1] | inhibition at 0.2 µM [2] | CB2 receptor binding percent inhibition [2] | other results
CC12CCC(C1)C(C)(C)[C@H]2NC(=O)c1nn(-c2ccc(F)cc2F)c2c1CCCCC2Cc1cccc(F)c1 (stereo partly drawn) [Cpd 92, 1-(2,4-difluoro-phenyl)-8-(3-fluoro-benzyl)-1,4,5,6,7,8-hexahydro-cycloheptapyrazole-3-carboxylic acid [(2S)-1,3,3-trimethyl-bicyclo[2.2.1]hept-2-yl]-amide] | 100 nM | 90 nM |  |  |  | inhibition at 1 µM [1, 4]: 86%; IC50 ([2]; Cannabinoid CB2 Receptor Binding IC50, calculated by linear regression from percent inhibition at various test concentrations): 200 nM; inhibition at 1 µM ([2]; read-out: CB2 receptor binding percent inhibition, test concentration 1 μM (footnote 1)): 82%
C[C@H](NC(=O)c1nn(-c2ccc(Cl)cc2Cl)c2c1CCCC/C2=C\c1ccc(F)cc1)C1CCCCC1 [Cpd 148, (8E)-1-(2,4-dichloro-phenyl)-8-(4-fluoro-benzylidene)-1,4,5,6,7,8-hexahydro-cycloheptapyrazole-3-carboxylic acid [(1S)-1-cyclohexyl-ethyl]-amide] | 80 nM | 200 nM | 69% | 39% |  | 
O=C(c1nn(-c2ccc(Cl)cc2Cl)c2c1CCCC/C2=C\c1ccc(F)cc1)N1CCCC1c1ccccn1 (centres unmarked) [Cpd 188, (8E)-[1-(2,4-dichloro-phenyl)-8-(4-fluoro-benzylidene)-1,4,5,6,7,8-hexahydro-cycloheptapyrazol-3-yl]-(2-pyridin-2-yl-pyrrolidin-1-yl)-methanone] | 100 nM | 10 nM | 64% | 36% |  | 
O=C(NN1CCCCC1)c1nn(-c2ccc(Cl)cc2Cl)c2c1CCCC/C2=C\c1ccc(Cl)cc1 [Cpd 133, (8E)-8-(4-chloro-benzylidene)-1-(2,4-dichloro-phenyl)-1,4,5,6,7,8-hexahydro-cycloheptapyrazole-3-carboxylic acid piperidin-1-ylamide] | 100 nM | 30 nM |  |  |  | inhibition at 0.25 µM ([1]; read-out: CB1 receptor binding percent inhibition, test concentration 0.25 μM (footnote 8)): 66%; inhibition at 0.25 µM ([2]; read-out: CB2 receptor binding percent inhibition, test concentration 0.25 μM (footnote 8)): 29%
O=C(N[C@@H]1c2ccccc2C[C@@H]1O)c1nn(C2CCCCC2)c2c1CCCC[C@@H]2Cc1ccc(F)cc1 [Cpd 120, (8R)-1-cyclohexyl-8-(4-fluoro-benzyl)-1,4,5,6,7,8-hexahydro-cycloheptapyrazole-3-carboxylic acid [(1R,2S)-2-hydroxy-indan-1-yl]-amide] |  | 100 nM |  |  | 16% | inhibition at 1 µM [1, 4]: 9%
C[C@H](NC(=O)c1nn(-c2ccc(Cl)cc2Cl)c2c1CCCC/C2=C\c1ccc(Cl)cc1)C1CCCCC1 [Cpd 138, (8E)-8-(4-chloro-benzylidene)-1-(2,4-dichloro-phenyl)-1,4,5,6,7,8-hexahydro-cycloheptapyrazole-3-carboxylic acid [(1S)-1-cyclohexyl-ethyl]-amide] | 30 nM | 100 nM | 71% | 22% |  | 
O=C(NN1CCCCC1)c1nn(-c2ccc(Cl)cc2Cl)c2c1CCCCC2Cc1cccc(F)c1 (centres unmarked) [Cpd 84, 1-(2,4-dichloro-phenyl)-8-(3-fluoro-benzyl)-1,4,5,6,7,8-hexahydro-cycloheptapyrazole-3-carboxylic acid piperidin-1-ylamide] | 700 nM | 100 nM |  |  | 11% | CB1 receptor binding average percent inhibition [1]: 67%
COc1ccc(/C=C2\CCCCc3c(C(=O)NC(C)(C)c4ccccc4)nn(-c4ccc(Cl)cc4Cl)c32)cc1 [Cpd 211, (8E)-1-(2,4-dichloro-phenyl)-8-(4-methoxy-benzylidene)-1,4,5,6,7,8-hexahydro-cycloheptapyrazole-3-carboxylic acid (1-methyl-1-phenyl-ethyl)-amide] | 7 nM | 20 nM | 92% | 37% |  | 
O=C(NN1CCCCC1)c1nn(-c2ccc(Cl)cc2Cl)c2c1CCCCC2Cc1ccc(F)cc1 (centres unmarked) [Cpd 85, 1-(2,4-dichloro-phenyl)-8-(4-fluoro-benzyl)-1,4,5,6,7,8-hexahydro-cycloheptapyrazole-3-carboxylic acid piperidin-1-ylamide] |  |  |  |  | 5% | CB1 receptor binding average percent inhibition [1]: ^(5)39%; EC50 [3, 6]: 300 nM
Cn1nc(/C=C/S(=O)(=O)NN2CCCCC2)c2c1C(Cc1cccc(F)c1)CCCC2 (centres unmarked) [Cpd 124, (2E)-2-[8-(3-fluoro-benzyl)-1-methyl-1,4,5,6,7,8-hexahydro-cycloheptapyrazol-3-yl]-ethenesulfonic acid piperidin-1-ylamide] |  |  |  |  | 47% | inhibition at 1 µM [1, 4]: 14%; EC50 [3, 6]: 3400 nM
O=C(N[C@@H](CO)c1ccccc1)c1nn(C2CCCCC2)c2c1CCCCC2Cc1cccc(F)c1 (stereo partly drawn) [Cpd 55, 1-cyclohexyl-8-(3-fluoro-benzyl)-1,4,5,6,7,8-hexahydro-cycloheptapyrazole-3-carboxylic acid [(1R)-2-hydroxy-1-phenyl-ethyl]-amide] |  | 400 nM |  |  | 18% | inhibition at 1 µM [1, 7]: 50%
O=C(c1nn(-c2ccc(F)cc2F)c2c1CCCCC2Cc1cccc(F)c1)N1CCOCC1 (centres unmarked) [Cpd 118, [1-(2,4-difluoro-phenyl)-8-(3-fluoro-benzyl)-1,4,5,6,7,8-hexahydro-cycloheptapyrazol-3-yl]-morpholin-4-yl-methanone] |  | 100 nM |  |  | 31% | inhibition at 1 µM [1, 7]: 4%
COc1ccc(/C=C2\CCCCc3c(C(=O)N[C@H](C)C4CCCCC4)nn(-c4ccc(Cl)cc4Cl)c32)cc1 [Cpd 214, (8E)-1-(2,4-dichloro-phenyl)-8-(4-methoxy-benzylidene)-1,4,5,6,7,8-hexahydro-cycloheptapyrazole-3-carboxylic acid [(1R)-1-cyclohexyl-ethyl]-amide] | 7 nM | 30 nM | 95% | 43% |  | 
O=C(NN1CCOCC1)c1nn(-c2ccc(Cl)cc2Cl)c2c1CCCCC2Cc1cccc(F)c1 (centres unmarked) [Cpd 91, 1-(2,4-dichloro-phenyl)-8-(3-fluoro-benzyl)-1,4,5,6,7,8-hexahydro-cycloheptapyrazole-3-carboxylic acid morpholin-4-ylamide] | 300 nM | 70 nM |  |  | 0% | inhibition at 1 µM [1, 4]: 68%
C[C@H](NS(=O)(=O)/C=C/c1nn(C2CCCCC2)c2c1CCCCC2Cc1cccc(F)c1)c1ccccc1 (stereo partly drawn) [Cpd 75, (2E)-2-[1-cyclohexyl-8-(3-fluoro-benzyl)-1,4,5,6,7,8-hexahydro-cycloheptapyrazol-3-yl]-ethenesulfonic acid [(1S)-1-phenyl-ethyl]-amide] | 200 nM | 70 nM |  |  | 27% | CB1 receptor binding average percent inhibition [1]: 77%
Cn1nc(/C=C/S(=O)(=O)NN2CCCCC2)c2c1C(Cc1ccc(F)cc1)CCCC2 (centres unmarked) [Cpd 128, (2E)-2-[8-(4-fluoro-benzyl)-1-methyl-1,4,5,6,7,8-hexahydro-cycloheptapyrazol-3-yl]-ethenesulfonic acid piperidin-1-ylamide] |  |  |  |  | 0% | inhibition at 1 µM [1, 4]: 0%; EC50 [3, 6]: 2700 nM
O=S(=O)(/C=C/c1nn(-c2ccc(F)cc2F)c2c1CCCCC2Cc1cccc(F)c1)NN1CCCCC1 (centres unmarked) [Cpd 123, (2E)-2-[1-(2,4-difluoro-phenyl)-8-(3-fluoro-benzyl)-1,4,5,6,7,8-hexahydro-cycloheptapyrazol-3-yl]-ethenesulfonic acid piperidin-1-ylamide] |  | 2900 nM |  |  | 14% | inhibition at 1 µM [1, 7]: 47%
CCOC(=O)[C@@H]1C2CCC(C2)[C@@H]1NC(=O)c1nn(-c2ccc(F)cc2F)c2c1CCCCC2Cc1ccc(F)cc1 (stereo partly drawn) [Cpd 110, (2R,3S)-3-{[1-(2,4-difluoro-phenyl)-8-(4-fluoro-benzyl)-1,4,5,6,7,8-hexahydro-cycloheptapyrazole-3-carbonyl]-amino}-bicyclo[2.2.1]heptane-2-carboxylic acid ethyl ester] |  | 100 nM |  |  | 59% | inhibition at 0.5 µM [1, 7]: 48%; inhibition at 1 µM [1, 7]: 63%; CB1 receptor binding percent inhibition ([1]; test concentration not stated): 56%
O=C(N[C@H](CCl)c1ccccc1)c1nn(-c2ccc(F)cc2F)c2c1CCCCC2Cc1ccc(F)cc1 (stereo partly drawn) [Cpd 172, 1-(2,4-difluoro-phenyl)-8-(4-fluoro-benzyl)-1,4,5,6,7,8-hexahydro-cycloheptapyrazole-3-carboxylic acid [(1S)-2-chloro-1-phenyl-ethyl]-amide] |  | 100 nM | 64% | 41% |  | 
C[C@@H](NC(=O)c1nn(-c2ccccc2Cl)c2c1CCCC/C2=C\c1ccc(Cl)cc1)c1ccccc1 [Cpd 190, (8E)-8-(4-chloro-benzylidene)-1-(2-chloro-phenyl)-1,4,5,6,7,8-hexahydro-cycloheptapyrazole-3-carboxylic acid [(1R)-1-phenyl-ethyl]-amide] | 80 nM | 9 nM | 76% | 12% |  | 
